From patent publication US7022710B2, “A1 adenosine receptor antagonists” (CV Therapeutics, Inc., priority 2003, dated 2006)

Experiments:
human A1 AdoR = target: T1, human A1 AdoR (UniProt P30542); test: Adenosine receptor radioligand binding assay, A1; settings: competition with 0.5–1 nM 3H-CPX, membranes of CHO-A1 or DDT1 MF-2 (hamster, endogenous A1)
T1 sequence (P30542 1-326): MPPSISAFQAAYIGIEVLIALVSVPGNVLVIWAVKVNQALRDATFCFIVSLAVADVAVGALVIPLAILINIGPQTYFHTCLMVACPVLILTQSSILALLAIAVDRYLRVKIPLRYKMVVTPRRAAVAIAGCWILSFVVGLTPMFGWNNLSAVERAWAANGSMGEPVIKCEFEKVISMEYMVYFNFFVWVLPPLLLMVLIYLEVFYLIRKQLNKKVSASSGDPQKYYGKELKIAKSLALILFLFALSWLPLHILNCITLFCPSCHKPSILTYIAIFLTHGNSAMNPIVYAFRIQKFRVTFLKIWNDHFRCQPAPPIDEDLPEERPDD
Procedure: (§1) The cDNAs for human A1, A2A, A2B or A3 AdoRs were prepared by RT-PCR from total RNA of human cells or tissues and sequenced on both strands. The expression vector containing each of these cDNAs and a second vector containing a neomycin or puromycin-resistance gene were introduced to HEK-293 or CHO cells by Lipofectin-Plus (Life Technology). Colonies were selected by growing transfected cells in the presence of neomycin or puromycin. Stably transfected cells were maintained in Dulbecco's modified Eagle's medium (DMEM) or F-12 medium with 10% fetal bovine serum, 100 μg/ml penicillin, 100 μg/ml streptomycin and appropriate concentrations of neomycin or puromycin. These stably transfected cells were referred to as HEK-“AdoR” or CHO-“AdoR” depending on the receptors that they express. The cell lines used routinely were CHO-A1, HEK-A2A, HEK-A2B.and CHO-A3 cells. In addition, hamster DDT1 MF-2 cells that express endogenous A1 AdoRs were also used to determine the binding activities of compounds for A1 AdoRs.
(§2) Monolayers of transfected cells or DDT1 MF-2 were washed with phosphate buffered saline (PBS) and harvested in a buffer containing 10 mM HEPES (pH 7.4), 10 mM EDTA and protease inhibitors. The cells were homogenized in polytron for 1 minute at setting 4 and centrifuged at 29000 g for 15 minutes at 4° C. The cell pellets were washed with a buffer containing 10 mM HEPES (pH7.4), 1 mM EDTA and protease inhibitors, and were resuspended in the same buffer supplemented with 10% sucrose. Frozen aliquots were kept at −80° C.
(§3) The affinities of compounds for A1, A2A, A2B or A3 AdoRs were determined in competition studies using radioligands such as ^3H-CPX (A1 antagonist), or ^3H-CCPA (A1 agonist), ^3H-ZM241385 (A2A antagonist) or ^3H-CGS21680 (A2A agonist), ^3H-ZM241385 (A2B antagonist) or ^125I-AB-MECA (A3 agonist) and membranes of corresponding cells. For example, to determine the affinity for A1 AdoRs, the competition assays were started by mixing 0.5–1 nM ^3H-CPX with various concentrations of test compounds and 25–100 μg membrane proteins of CHO-A1 or DDT1 MF-2 in TE buffer (50 mM Tris and 1 mM EDTA) supplemented with 1 U/ml adenosine deaminase. The assays were incubated for 60–90 minutes, stopped by filtration onto GF/B filter plates using Packard Harvester and washed four times with ice-cold TM buffer (10 mM Tris, 1 mM MgCl2, pH 7.4). The amounts of radioligands that bound to the GF/B filter plates were determined by scintillation counting. Nonspecific binding was determined in the presence of 1–10 μM of cold ligands. Bmax and KD values were calculated using GraphPad software.

human A2B AdoR = target: T2, human A2B AdoR (Homo sapiens, UniProt P29275); test: Adenosine receptor radioligand binding assay, A2B; settings: competition with 3H-ZM241385, HEK-A2B cell membranes
T2 construct: expressed in transfected cells; host or cells: HEK-293 (HEK-A2B), membrane preparation
T2 sequence (P29275 1-332): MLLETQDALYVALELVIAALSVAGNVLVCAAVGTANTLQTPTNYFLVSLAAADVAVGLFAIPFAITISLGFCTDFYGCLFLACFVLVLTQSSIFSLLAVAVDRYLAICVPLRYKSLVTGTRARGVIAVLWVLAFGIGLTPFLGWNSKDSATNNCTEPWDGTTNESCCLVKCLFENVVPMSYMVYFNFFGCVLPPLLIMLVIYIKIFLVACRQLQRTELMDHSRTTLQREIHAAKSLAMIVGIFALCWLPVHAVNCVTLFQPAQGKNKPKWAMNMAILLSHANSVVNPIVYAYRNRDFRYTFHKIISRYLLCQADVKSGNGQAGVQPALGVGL
Procedure: as §1, §2, §3

Row | Compound | Ki (human A1 AdoR) [nM] | Ki (human A2B AdoR) [nM]
1 | (6-amino-9-propyl-8-pyrazolylpurin-2-yl)[2-(4-chlorophenyl)ethyl]amine | 1090 | 5000
2 | (6-amino-9-propyl-8-pyrazolylpurin-2-yl)[2-(2-chlorophenyl)ethyl]amine | 382 | 3640
3 | CCn1c(-n2cccn2)nc2c(N)nc(NCc3ccccc3)nc21 [(6-amino-9-ethyl-8-pyrazolylpurin-2-yl)benzylamine] | 15 | 1000
4 | {[3-(aminomethyl)phenyl]methyl}(6-amino-9-propyl-8-pyrazolylpurin-2-yl)amine | 408 | 7000
5 | (6-amino-9-propyl-8-pyrazolylpurin-2-yl)[2-(4-fluorophenyl)ethyl]amine | 66 | 2300
6 | (6-amino-9-propyl-8-pyrazolylpurin-2-yl)[2-(2,5-dimethoxyphenyl)ethyl]amine | 182 | 1680
7 | (6-amino-9-propyl-8-pyrazolylpurin-2-yl)[2-(3-fluorophenyl)ethyl]amine | 28 | 160
8 | (6-amino-9-propyl-8-pyrazolylpurin-2-yl)(2-phenylethyl)amine | 113 | 500
9 | (4-{[(6-amino-9-propyl-8-pyrazolylpurin-2-yl)amino]methyl}phenyl)methan-1-ol | 1790 | 7000
